Test results reported in patent publication US11226337B2, “Chemoproteomic profiling of protein electrophilic and oxidative post-translational modifications” (Zenagem, LLC, priority 2017, dated 2022).

Columns and labels:
Assay in all cases: SILAC RP-ABPP
Assay type in all cases: cell-based
[1] = biological target: T1, NT5DC2 5nucleotidase domaincontaining (Q9H857) (Homo sapiens, UniProt Q9H857); details: SILAC H/L, HEK293T
T1 construct: shared by both the endogenous and recombinant forms of these proteins; endogenous in cells; host or cells: HEK293T and MDA-MB-231
T1 sequence (Q9H857 1-520): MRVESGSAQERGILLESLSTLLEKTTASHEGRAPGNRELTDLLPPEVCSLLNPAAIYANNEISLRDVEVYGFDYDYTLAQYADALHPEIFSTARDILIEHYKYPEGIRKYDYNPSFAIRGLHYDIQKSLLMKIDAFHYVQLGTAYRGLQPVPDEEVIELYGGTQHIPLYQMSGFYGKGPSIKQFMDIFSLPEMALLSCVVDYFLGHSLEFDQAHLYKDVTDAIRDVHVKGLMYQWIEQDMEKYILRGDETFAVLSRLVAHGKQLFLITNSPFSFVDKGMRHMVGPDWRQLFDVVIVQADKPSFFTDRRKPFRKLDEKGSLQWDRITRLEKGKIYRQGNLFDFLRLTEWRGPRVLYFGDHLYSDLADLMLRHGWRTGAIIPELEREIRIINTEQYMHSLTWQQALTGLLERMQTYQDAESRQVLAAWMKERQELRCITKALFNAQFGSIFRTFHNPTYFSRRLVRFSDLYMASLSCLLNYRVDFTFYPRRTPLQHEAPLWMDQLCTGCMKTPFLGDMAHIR

[2] = biological target: T2, KEAP1 Kelchlike ECHassociated protein 1 (Q14145) (Homo sapiens, UniProt Q14145); details: SILAC H/L
T2 construct: shared by both the endogenous and recombinant forms of these proteins; endogenous in cells; host or cells: HEK293T and MDA-MB-231
T2 sequence (Q14145 whole entry): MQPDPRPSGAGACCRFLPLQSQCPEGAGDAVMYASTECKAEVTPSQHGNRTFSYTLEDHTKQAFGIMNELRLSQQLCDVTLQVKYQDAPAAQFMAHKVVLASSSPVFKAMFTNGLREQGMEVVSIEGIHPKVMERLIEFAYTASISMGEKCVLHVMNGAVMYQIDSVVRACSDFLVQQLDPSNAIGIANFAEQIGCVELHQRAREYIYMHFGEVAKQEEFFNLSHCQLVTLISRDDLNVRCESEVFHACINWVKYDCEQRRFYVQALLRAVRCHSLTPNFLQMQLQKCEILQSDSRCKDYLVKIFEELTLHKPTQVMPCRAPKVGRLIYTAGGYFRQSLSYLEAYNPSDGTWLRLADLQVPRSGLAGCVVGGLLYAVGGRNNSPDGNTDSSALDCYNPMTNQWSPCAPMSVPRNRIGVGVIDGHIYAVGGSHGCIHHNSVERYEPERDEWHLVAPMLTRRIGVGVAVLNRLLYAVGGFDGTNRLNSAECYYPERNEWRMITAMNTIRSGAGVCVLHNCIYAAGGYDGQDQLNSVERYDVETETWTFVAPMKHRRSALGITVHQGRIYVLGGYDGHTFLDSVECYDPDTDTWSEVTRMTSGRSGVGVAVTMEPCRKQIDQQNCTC

[3] = biological target: T3, ALDH2 Aldehyde dehydrogenase (P05091) (Homo sapiens, UniProt P05091); details: SILAC H/L, HEK293T
T3 construct: shared by both the endogenous and recombinant forms of these proteins; endogenous in cells; host or cells: HEK293T and MDA-MB-231
T3 sequence (P05091 18-517): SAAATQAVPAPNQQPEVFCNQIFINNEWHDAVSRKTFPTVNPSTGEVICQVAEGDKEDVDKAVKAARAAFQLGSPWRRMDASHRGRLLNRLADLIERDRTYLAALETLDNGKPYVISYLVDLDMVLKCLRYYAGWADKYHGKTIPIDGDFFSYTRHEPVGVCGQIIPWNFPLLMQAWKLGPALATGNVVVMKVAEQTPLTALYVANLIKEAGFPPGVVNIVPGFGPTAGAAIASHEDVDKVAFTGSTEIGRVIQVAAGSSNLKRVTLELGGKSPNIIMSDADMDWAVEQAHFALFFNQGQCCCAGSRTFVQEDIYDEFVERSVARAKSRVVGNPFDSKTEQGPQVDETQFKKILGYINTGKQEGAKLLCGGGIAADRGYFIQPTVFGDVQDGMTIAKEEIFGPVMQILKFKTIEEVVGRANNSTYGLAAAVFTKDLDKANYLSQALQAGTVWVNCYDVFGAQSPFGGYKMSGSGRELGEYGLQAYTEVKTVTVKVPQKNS
Summary of the method: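 SILAC cells (HEK293T, MDA-MB-231) grown near confluence; heavy: probe 1, 3 mM, 0.5 h; light: equal 3 or probe + 10× 3. Proteomes mixed equimolar, CuAAC with 100 μM biotin-azide, 1 h RT; enrichment, LC-MS. Ratios via CIMAGE-type extraction, ≥3 peptides.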

SMILES	enrichment ratioavg ([1]; probe 1 3 mM 0.5 h vs probe 3)	competition ratioavg ([1]; probe 1 vs probe 1+10x probe 3)	enrichment ratioavg ([2]; probe 1 3 mM 0.5 h vs probe 3, HEK293T)	competition ratioavg ([2]; probe 1 vs probe 1+10x probe 3, HEK293T)	enrichment ratioavg ([3]; probe 1 3 mM 0.5 h vs probe 3)	competition ratioavg ([3]; probe 1 vs probe 1+10x probe 3)	enrichment ratioavg ([1]; probe 2 1 mM 0.5 h vs probe 4)	competition ratioavg ([1]; probe 2 vs probe 2+10x probe 4)	enrichment ratioavg ([2]; probe 2 1 mM 0.5 h vs probe 4, MDA-MB-231)	competition ratioavg ([2]; probe 2 vs probe 2+10x probe 4, MDA-MB-231)	enrichment ratioavg ([3]; probe 2 1 mM 0.5 h vs probe 4)	competition ratioavg ([3]; probe 2 vs probe 2+10x probe 4)
C#CCNN.Cl [probe 1, prop-2-yn-1-ylhydrazine hydrochloride]	11	3	17	20	8	2	–	–	–	–	–	–
C#CCCNC(=O)c1ccc(NN)cc1.Cl [probe 2, N-(but-3-yn-1-yl)-4-hydrazinylbenzamide hydrochloride]	–	–	–	–	–	–	16	4	12	3	11	6
